In ChEMBL document CHEMBL1126861 (J Med Chem, 1993):
Where a SMILES comes first, the peptide text is derived from it.

Assays:
[1] = target: Delta-type opioid receptor (Rattus norvegicus, UniProt P33533); test: Tested for binding affinity against delta opioid receptor by displacing [3H]- DSLET radioligand from rat brain membrane preparations
[2] = target: Mu-type opioid receptor (Rattus norvegicus, UniProt P33535); test: Tested for binding affinity against mu opioid receptor fby displacing [3H]- DAMGO radioligand from rat brain membrane preparations
Mu-type opioid receptor, sequence (P33535 whole entry): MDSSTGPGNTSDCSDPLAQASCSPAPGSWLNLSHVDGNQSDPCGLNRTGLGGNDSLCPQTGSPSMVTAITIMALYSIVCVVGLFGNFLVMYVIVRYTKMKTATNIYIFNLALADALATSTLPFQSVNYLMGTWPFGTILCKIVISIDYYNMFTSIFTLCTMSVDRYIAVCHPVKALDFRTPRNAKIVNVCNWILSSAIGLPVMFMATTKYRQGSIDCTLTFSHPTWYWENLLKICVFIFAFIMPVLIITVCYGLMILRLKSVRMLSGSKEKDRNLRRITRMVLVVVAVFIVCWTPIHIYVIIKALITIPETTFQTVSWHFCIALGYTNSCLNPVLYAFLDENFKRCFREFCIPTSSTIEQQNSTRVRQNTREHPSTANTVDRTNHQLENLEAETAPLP

Delta-type opioid receptor, sequence (P33533 whole entry): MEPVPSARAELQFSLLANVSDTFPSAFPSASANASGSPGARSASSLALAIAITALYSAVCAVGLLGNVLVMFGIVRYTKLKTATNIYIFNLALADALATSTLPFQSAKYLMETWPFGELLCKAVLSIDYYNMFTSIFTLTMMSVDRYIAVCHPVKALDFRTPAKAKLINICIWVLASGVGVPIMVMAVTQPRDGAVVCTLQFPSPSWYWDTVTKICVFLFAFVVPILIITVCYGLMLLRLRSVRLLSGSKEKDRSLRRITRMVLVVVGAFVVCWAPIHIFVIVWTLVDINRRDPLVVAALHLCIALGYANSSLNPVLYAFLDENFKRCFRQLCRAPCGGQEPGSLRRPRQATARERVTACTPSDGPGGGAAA

Structure (SMILES) | Ki [1] | Ki [2]
N[C@@H](Cc1ccc(O)cc1)C(=O)N1Cc2ccccc2C[C@H]1C(=O)N[C@@H](Cc1ccccc1)C(=O)O (HELM PEPTIDE1{Y.[Tic].F}$$$$V2.0) | 1.94 nM | 
Oc1ccc2c3c1O[C@H]1c4[nH]c5ccccc5c4C[C@@]4(O)[C@@H](C2)N(CC2CC2)CC[C@]314 [NALTRINDOLE] | 0.182 nM | 
CC(C)[C@H](NC(=O)[C@H](CC(=O)O)NC(=O)[C@H](Cc1ccccc1)NC(=O)[C@@H](C)NC(=O)[C@@H](N)Cc1ccc(O)cc1)C(=O)N[C@H](C(=O)NCC(N)=O)C(C)C [DELTORPHIN C] | 6.43 nM | 3930 nM
N[C@@H](Cc1ccc(O)cc1)C(=O)N1Cc2ccccc2C[C@H]1C(=O)N[C@@H](Cc1ccccc1)C(=O)N[C@@H](Cc1ccccc1)C(=O)O (HELM PEPTIDE1{Y.[Tic].F.F}$$$$V2.0) | 0.308 nM | 3230 nM
